Patent publication US9849130B2 (KamTek, Inc., priority 2014, dated 2017)
Converted amounts (≈) assume the structure as drawn. “And” between values parts separate entries of the source, which are not always exact repeats. Identical values can stand only once. Like-named read-outs stand apart in the source and are kept apart here.

How the values were obtained:
Lactobacillus strains = assay: MIC against Lactobacillus strains; type: cell-based, Lactobacillus spp.; conditions: for MIC: broth microdilution, BHI with 0.02% Tween 80, pH 6.0
[1] = CFM formulations suitable for in vivo dosing (Table 18)
[2] = cited from earlier work
[3] = in vivo; cited from earlier work
[4] = cited from earlier work; remark: listed apart in the source
C. difficile = assay: Minimum bactericidal concentration (MBC) against C. difficile; type: cell-based, Clostridium difficile; conditions: for MBC: Clostridioides difficile
CD = assay: Animal model testing of CDI (Syrian Golden Hamster model), survival; type: in vivo
CD strain VPI 1063 = assay: MIC of CFM formulations following incubation with feces (supernatants); type: cell-based, Clostridium difficile; conditions: for MIC: Clostridioides difficile
[5] = Lactobacillus, pH 6, Lactobacillus jhonsonii HM-643, read-out: MIC
[6] = Lactobacillus, pH 6, Lactobacillus sp. HM-228, read-out: MIC
[7] = Lactobacillus, pH 6, Lactobacillus sp. HM-478, read-out: MIC
[8] = pH 6, Lactobacillus crispatus HM-637, read-out: MIC
[9] = pH 6, Lactobacillus gasseri HM-104, read-out: MIC
[10] = pH 6, Lactobacillus iners HM-126, read-out: MIC
[11] = pH 6, Lactobacillus jensenii HM-105, read-out: MIC
[12] = pH 6, Lactobacillus reuteri HM-102, read-out: MIC
[13] = pH 6, Lactobacillus rhamnosus HM-106, read-out: MIC
[14] = pH 6, Lactobacillus vaginalis HM-405, read-out: MIC

## CCN=c1cc2n(-c3ccc(Cl)cc3)c3ccccc3nc-2cc1Nc1ccc(Cl)cc1 [B746]
Lactobacillus strains; Lactobacillus crispatus HM-637
  MIC: 8 µg/mL (≈ 17.4 µM)
Lactobacillus strains; Lactobacillus gasseri HM-104
  MIC: 16 µg/mL (≈ 34.8 µM)
Lactobacillus strains; Lactobacillus iners HM-126
  MIC: 4 µg/mL (≈ 8.71 µM)
Lactobacillus strains; Lactobacillus jensenii HM-105
  MIC: >32 µg/mL
Lactobacillus strains; Lactobacillus jhonsonii HM-643
  MIC: 32 µg/mL (≈ 69.7 µM)
Lactobacillus strains; Lactobacillus reuteri HM-102
  MIC: 32 µg/mL (≈ 69.7 µM)
Lactobacillus strains; Lactobacillus rhamnosus HM-106
  MIC: >32 µg/mL
Lactobacillus strains; Lactobacillus sp. HM-228
  MIC: 4 µg/mL (≈ 8.71 µM)
Lactobacillus strains; Lactobacillus sp. HM-478
  MIC: 16 µg/mL (≈ 34.8 µM)
Lactobacillus strains; Lactobacillus vaginalis HM-405
  MIC: 4 µg/mL (≈ 8.71 µM)

## CCN=c1cc2n(-c3cccc(C(F)(F)F)c3)c3ccccc3nc-2cc1Nc1cccc(C(F)(F)F)c1 [B4129]
Lactobacillus strains; Lactobacillus crispatus HM-637
  MIC: 16 µg/mL (≈ 30.4 µM)
Lactobacillus strains; Lactobacillus gasseri HM-104
  MIC: >32 µg/mL
Lactobacillus strains; Lactobacillus iners HM-126
  MIC: 1 µg/mL (≈ 1.9 µM)
Lactobacillus strains; Lactobacillus jensenii HM-105
  MIC: >32 µg/mL
Lactobacillus strains; Lactobacillus jhonsonii HM-643
  MIC: >32 µg/mL
Lactobacillus strains; Lactobacillus reuteri HM-102
  MIC: >32 µg/mL
Lactobacillus strains; Lactobacillus rhamnosus HM-106
  MIC: >32 µg/mL
Lactobacillus strains; Lactobacillus sp. HM-228
  MIC: 1 µg/mL (≈ 1.9 µM)
Lactobacillus strains; Lactobacillus sp. HM-478
  MIC: >32 µg/mL
Lactobacillus strains; Lactobacillus vaginalis HM-405
  MIC: 2 µg/mL (≈ 3.8 µM)

## CC(C)N=c1cc2n(-c3ccc(Cl)cc3)c3ccccc3nc-2cc1Nc1ccc(Cl)cc1 [CFM, 3-(p-chloroanilino)-10-(p-chlorophenyl)-2,10-dihydro-2-iso-propyliminophenazine]
[1]; Cremophor-EL (100%, liquid), organic solvent or mixture, in Cremophor-EL, liquid, 100%
  solubility: 8000 µg/mL (≈ 16900 µM)
[1]; Cremophor-EL (100%, liquid), organic solvent or mixture, in Cremophor-EL, liquid, 100%, if kept for long time (3-5 days)
  solubility: 10000 µg/mL (≈ 21100 µM)
[1]; Phosal 50 PG (phospholipids), oil or lipid, in Phosal 50 PG (phospholipids), thick oily liquid
  solubility: 10000 µg/mL (≈ 21100 µM)
[1]; Phosal 53 MCT (phospholipids), oil or lipid, in Phosal 53 MCT (phospholipids), thick oily liquid
  solubility: 10000 µg/mL (≈ 21100 µM)
[1]; Tween 80 (100%, liquid), organic solvent or mixture, in Tween 80, liquid, 100%
  solubility: 12000 µg/mL (≈ 25300 µM)
[1]; Tween 80 (100%, liquid), organic solvent or mixture, in Tween 80, liquid, 100%, if kept for long time (3-5 days)
  solubility: 15000 µg/mL (≈ 31700 µM)
[1]; in Cremophor-EL, liquid, 100%, remains stable following dilution in water/medium/saline/PBS
  Stability: Stable, and remains
[1]; in Olive oil, canola oil, and coconut oil, diluted only in oils, forms emulsions in water
  Stability: Stable, should be
[1]; in Phosal 50 PG (phospholipids), forms emulsion in water
  Stability: Stable, clear, thick
[1]; in Phosal 53 MCT (phospholipids), forms emulsion in water
  Stability: Stable, clear, thick
[1]; in Tween 80, liquid, 100%, stable after dilution in water or culture medium, PBS, precipitates slowly in saline
  Stability: Stable undiluted,
[1]; olive oil, canola oil, and coconut oil (100%, liquid), oil or lipid, in Olive oil, canola oil, and coconut oil, liquid, 100%
  solubility: 5000 µg/mL (≈ 10600 µM)
[1]; polyethylene glycol (PEG-300, PEG-400), 100%, liquid, organic solvent or mixture, in Polyethylene glycol (PEG-300, PEG-400)
  solubility: 5000 µg/mL (≈ 10600 µM)
Lactobacillus strains; [5]
  MIC: > 32 µg/mL
Lactobacillus strains; [6]
  MIC: 1 µg/mL (≈ 2.11 µM)
Lactobacillus strains; [7]
  MIC: > 32 µg/mL
Lactobacillus strains; [8]
  MIC: 4 µg/mL (≈ 8.45 µM)
Lactobacillus strains; [9]
  MIC: > 32 µg/mL
Lactobacillus strains; [10]
  MIC: 2 µg/mL (≈ 4.22 µM)
Lactobacillus strains; [11]
  MIC: > 32 µg/mL
Lactobacillus strains; [12]
  MIC: > 32 µg/mL
Lactobacillus strains; [13]
  MIC: > 32 µg/mL
Lactobacillus strains; [14]
  MIC: 2 µg/mL (≈ 4.22 µM)
[2]; after a single dose of 100 mg
  half-life: about 10 days
[2]; following long-term high dosage of 300 mg
  half-life: about 70 days
[2]; in vivo, po
  orally absorbed bioavailability: 45-65%
[3]
  gastrointestinal conditions including abdominal and epigastric pain, nausea, vomiting and/or diarrhea: 40-50 % of patients
  icothyosis and dryness of skin: 8-28 % of patients
  ocular conditions including conjunctival pigmentation, itching and dryness: approximately 1 % of patients
  rash and pruritus: 1-5 % of patients
  skin pigmentation: 75-100 % of patients
[4]
  solubility in water: 0.225 µg/mL (≈ 0.475 µM)
C. difficile
  MBC/MIC: 2 and 1
  MBC/MIC ratio range: 1-2
C. difficile; CD isolate BAA1805 (hyper-virulent strain BI/NAP1/027)
  MBC/MIC: 1
C. difficile; BAA1805
  MBC: 0.125 µg/mL (≈ 0.264 µM)
C. difficile; CD isolate NR13430, read-out: MBC
  MBC: 0.25 µg/mL (≈ 0.528 µM)
C. difficile; CD isolate NR13432, read-out: MBC
  MBC: 0.25 µg/mL (≈ 0.528 µM)
C. difficile; CD isolate NR13437, read-out: MBC
  MBC: 0.25 µg/mL (≈ 0.528 µM)
C. difficile; CD isolate NR32882, read-out: MBC
  MBC: 0.5 µg/mL (≈ 1.06 µM)
C. difficile; CD isolate NR32883, read-out: MBC
  MBC: 0.5 µg/mL (≈ 1.06 µM)
C. difficile; CD isolate NR332884, read-out: MBC
  MBC: 0.25 µg/mL (≈ 0.528 µM)
C. difficile; CD isolate VPI10463, read-out: MBC
  MBC: 0.25 µg/mL (≈ 0.528 µM)
CD; 20 and 40 mg/kg versus 10 mg/kg
  protection at higher dosages: did not increase the protection
CD; CFM dosage of 10 mg/kg
  protection during 28 days of observation: 30%
CD; CFM in aqueous suspension of CMC at 10 mg/kg/once a day
  survival for 27 days: 30%
CD; CFM in aqueous suspension of CMC, oral, 10 mg/kg/day, 5 days
  protection on animal survival by day 9 after infection: 50%
CD; drug alone at the same dosage as in the combination (Lamprene 10 mg/kg twice a day)
  survival by day 7: 0%

## Cc1ncc([N+](=O)[O-])n1CCO [MET, metronidazole]
Lactobacillus strains; [5]
  MIC: > 32 µg/mL
Lactobacillus strains; [6]
  MIC: > 32 µg/mL
Lactobacillus strains; [7]
  MIC: > 32 µg/mL
Lactobacillus strains; [8]
  MIC: > 32 µg/mL
Lactobacillus strains; [9]
  MIC: > 32 µg/mL
Lactobacillus strains; [10]
  MIC: > 32 µg/mL
Lactobacillus strains; [11]
  MIC: > 32 µg/mL
Lactobacillus strains; [12]
  MIC: > 32 µg/mL
Lactobacillus strains; [13]
  MIC: > 32 µg/mL
Lactobacillus strains; [14]
  MIC: > 32 µg/mL
Lactobacillus strains; ten strains tested
  in vitro activity against Lactobacillus spp. (in words): essentially inactive
CD strain VPI 1063; 128 μg/ml in 20% feces, 2 hours at 37° C., centrifuged, supernatants filter sterilized and tested, CD strain VPI 1063
  MIC in Fecal extracts: >32 µg/mL
CD strain VPI 1063; VPI1063, 128 μg/ml in 20% feces, 2 hours at 37° C., centrifuged, supernatants filter sterilized and tested, CD strain VPI 1063, read-out: MIC in Fecal extracts
  MIC: > 32 µg/mL
CD strain VPI 1063; VPI1063, serial dilutions in BHI, without centrifugation, CD strain VPI 1063, read-out: MIC in BHI control
  MIC: 0.062 µg/mL
C. difficile; CD strain VPI 10463, BHI, Table 19 formulations, read-out: MBC
  MBC: 0.25 µg/mL (≈ 1.46 µM)

## CN[C@H](CC(C)C)C(=O)N[C@H]1C(=O)N[C@@H](CC(N)=O)C(=O)N[C@H]2C(=O)N[C@H]3C(=O)N[C@H](C(=O)N[C@H](C(=O)O)c4cc(O)cc(O)c4-c4cc3ccc4O)[C@H](O)c3ccc(c(Cl)c3)Oc3cc2cc(c3O[C@@H]2O[C@H](CO)[C@@H](O)[C@H](O)[C@H]2O[C@H]2C[C@](C)(N)[C@H](O)[C@H](C)O2)Oc2ccc(cc2Cl)[C@H]1O [VAN, vancomycin]
Lactobacillus strains
  in vitro activity against Lactobacillus spp. (in words): six strains susceptible and four resistant
CD strain VPI 1063; VPI1063, 2 h, read-out: MIC in Centrifuged BHI control
  MIC: 0.5 µg/mL
CD strain VPI 1063; VPI1063, 2 h, read-out: MIC in Fecal extracts
  MIC: 1 µg/mL
CD strain VPI 1063; VPI1063, read-out: MIC in BHI control
  MIC: 0.5 µg/mL
CD strain VPI 1063; Table 21
  increase in MIC after incubation in feces: 2 fold
C. difficile
  MBC/MIC ratio range: 1-4
C. difficile; BAA1805
  MBC: 2 µg/mL (≈ 1.38 µM)
CD; drug alone at the same dosage as in the combination (VAN 5 mg/kg twice a day)
  survival by day 14: 0%
